Assay results published in ChEMBL document CHEMBL1159265, “Bis(sulfato)-cyclosiphonodictyol A, a new disulfated sesquiterpene-hydroquinone from a deep water collection of the Marine sponge Siphonodictyon coralliphagum” (J Nat Prod, 1995).

Target: Leukotriene B4 receptor 1 (Homo sapiens, UniProt Q15722)
Test: Displacement of [3H]LTB4 from LTB4 receptor in human neutrophils

Chain of Leukotriene B4 receptor 1 (Q15722 whole entry): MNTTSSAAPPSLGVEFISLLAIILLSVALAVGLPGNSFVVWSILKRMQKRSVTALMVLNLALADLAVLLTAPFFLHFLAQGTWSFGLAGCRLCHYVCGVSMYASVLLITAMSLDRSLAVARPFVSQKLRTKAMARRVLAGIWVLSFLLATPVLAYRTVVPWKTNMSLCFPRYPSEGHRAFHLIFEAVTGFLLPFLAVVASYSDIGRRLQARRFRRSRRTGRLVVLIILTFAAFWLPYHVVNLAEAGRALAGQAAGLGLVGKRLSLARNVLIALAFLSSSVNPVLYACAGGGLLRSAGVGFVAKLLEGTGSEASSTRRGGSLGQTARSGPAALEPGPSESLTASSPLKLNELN

IC50: 44.5 µM
SMILES: CC1(C)CCC[C@]2(C)[C@H]3Cc4c(OS(=O)(=O)O)ccc(OS(=O)(=O)O)c4CO[C@]3(C)CC[C@@H]12
